# Like-named read-outs stand apart in the source and are kept apart here.
# Experiments:
# [1] = biological target: T1, Recombinant human PKC-theta (His-tagged 362-706) (Homo sapiens, UniProt Q04759); test: PKC-theta inhibition assay (HTRF KinEASE kit); format: biochemical; conditions: ATP 6.5 μM, STK substrate 525 nM
# T1 construct: Recombinant human PKC-theta (His-tagged 362-706); His
# Procedure, shortened: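 IC50 values were from 4-parameter logistic fits of percent inhibition, based on acceptor/donor HTRF ratios over 10 semi-log compound doses. Kinase reactions, started with substrate plus ATP, ran 30 min at 25 °C in buffer supplemented with 10 mM MgCl2, 1 mM DTT and 0.1% Tween 20; detection lasted 2 h.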
# [2] = biological target: T2, Recombinant human PKC-delta (His-tagged 345-676) (Homo sapiens, UniProt Q05655); test: PKC-delta inhibition assay (HTRF KinEASE kit); format: biochemical; conditions: ratio, PKC-theta vs PKC-delta HTRF; for PKC-theta/PKC-delta selectivity (binned): binned A to G
# T2 construct: PKC-delta (His-tagged 345-676); His
# T2 sequence (Q05655 345-676): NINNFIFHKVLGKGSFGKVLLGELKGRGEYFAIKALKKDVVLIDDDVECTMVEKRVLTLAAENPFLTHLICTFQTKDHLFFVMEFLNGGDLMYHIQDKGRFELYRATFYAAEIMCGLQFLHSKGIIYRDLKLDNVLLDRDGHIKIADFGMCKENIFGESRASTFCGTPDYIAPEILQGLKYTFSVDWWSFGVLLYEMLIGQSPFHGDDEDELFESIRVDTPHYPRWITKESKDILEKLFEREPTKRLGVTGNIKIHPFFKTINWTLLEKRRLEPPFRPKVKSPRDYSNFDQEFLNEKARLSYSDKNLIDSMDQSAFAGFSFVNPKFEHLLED
# Experimental: PKC-theta and PKC-delta biochemical activities were measured using the PKC-theta HTRF KinEASEkit kit, according to manufacturer's instructions (Cisbio, catalogue number 61ST1PEJ). Briefly, the kinase buffer component of the kit was supplemented with 10 mM MgCl2, 1 mM DTT and 0.1% Tween 20. […] The streptavidin_XL665 and STK antibody-cryptate detection reagents were mixed according to the manufacturer's instructions. Test compounds were diluted in DMSO in a series of 10 semi-log step doses; 10 nL of each compound dose were dispensed in 384 well plates. […] The reaction was started by addition of the substrate and ATP and incubated at 25° C. for 30 minutes or 20 minutes for the PKC-theta and PKC-delta assays, respectively. The detection reagents were added, and the plate was incubated in the dark for 2 hours. […] The ratio of acceptor and donor emission signals was calculated for each well.
# [3] = tested on: IL-2 secretion by human effector memory T cells (TEM); test: Effector memory T cells IL-2 release assay (CD3/CD28 stimulation, HTRF IL-2 detection); format: cell-based; conditions: 24 h; for IC50: Homo sapiens, T-cell
# Procedure, shortened: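 IL-2 released into the supernatant was quantified by HTRF after 24 h at 37 °C in 5% CO2. The cells were stimulated primary human TEM from donor buffy coats, treated with a 10-point semi-log compound series (0.1% DMSO final, triplicates).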
# [4] = binned A to H, read-out: PKC-theta HTRF pIC50 (binned) (converted)
# [5] = read-out: PKC-theta HTRF pIC50 (converted)
# [6] = binned A to G, read-out: PKC-theta IL2 pIC50 (binned) (converted)
# [7] = read-out: PKC-theta IL2 pIC50 (converted)
# T1 sequence (Q04759 362-706): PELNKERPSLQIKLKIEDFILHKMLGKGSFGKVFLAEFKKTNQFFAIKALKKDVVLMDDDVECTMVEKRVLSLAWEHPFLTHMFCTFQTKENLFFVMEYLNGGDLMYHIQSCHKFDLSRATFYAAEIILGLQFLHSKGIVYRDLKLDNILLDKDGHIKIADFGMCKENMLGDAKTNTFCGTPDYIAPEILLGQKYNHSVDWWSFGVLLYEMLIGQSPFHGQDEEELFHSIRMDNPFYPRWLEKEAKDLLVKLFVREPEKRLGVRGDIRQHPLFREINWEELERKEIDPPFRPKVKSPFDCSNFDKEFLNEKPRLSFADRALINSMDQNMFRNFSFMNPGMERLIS
SMILES,"IC50 [1, 4]","IC50 [1, 5]",PKC-theta/PKC-delta selectivity [2],PKC-theta/PKC-delta selectivity (binned) [2],"IC50 [3, 6]","IC50 [3, 7]",PKC-theta IL2 pIC50 [3],PKC-theta IL2 pIC50 (binned) ([3]; binned A to G)
CC1(Cc2ccccc2)C(=O)Nc2nccc(-c3cccc(N4CCNCC4)c3)c21 (centres unmarked) [Example 49],316 to 1000 nM,1000 nM,1,F (a ratio of between 1 and 5),> 1000 nM,3980 nM,,
"CC[C@@H]1CNCCN1c1cc(Cl)cc(-c2ccnc3c2[C@](C)(O)C(=O)N3)n1 (single isomer, unassigned) [Example 139]",0.316 to 1 nM,0.794 nM,1,F (a ratio of between 1 and 5),1 to 3.16 nM,2 nM,,
C[C@@H]1CN(c2cc(C(F)(F)F)cc(-c3ccnc4c3C(C)(C)C(=O)N4)n2)[C@@H](C)CN1 [Example 117],10 to 31.6 nM,12.6 nM,10,D (a ratio of between 10 and 20),100 to 316 nM,200 nM,,
CC(C)[C@H]1CN(c2cccc(-c3ccnc4c3C(C)(C)C(=O)N4)c2)CCN1 [Example 50],31.6 to 100 nM,79.4 nM,2,F (a ratio of between 1 and 5),> 1000 nM,1000 nM,,
"CC[C@@]1(C)C(=O)Nc2nccc(-c3cc(C(F)(F)F)cc(N4CCNC[C@H]4C)n3)c21 (single isomer, unassigned) [Example 198]",3.16 to 10 nM,3.98 nM,30,C (a ratio of between 20 and 30),31.6 to 100 nM,63.1 nM,,
C[C@@H]1CNCCN1c1cc(C(F)(F)F)cc(-c2c(F)cnc3c2C(C)(C)C(=O)N3)n1 [Example 156],10 to 31.6 nM,12.6 nM,12,D (a ratio of between 10 and 20),100 to 316 nM,126 nM,,
CC1(C)C(=O)Nc2nccc(-c3cccc(C4CCNCC4)c3)c21 [Example 45],100 to 316 nM,200 nM,2,F (a ratio of between 1 and 5),> 1000 nM,3980 nM,,
"C[C@@]1(O)C(=O)Nc2nccc(-c3cc(C(F)(F)F)cc(N4CC5CCC4CN5)n3)c21 (single isomer, unassigned) [Example 138]",10 to 31.6 nM,15.8 nM,16,D (a ratio of between 10 and 20),316 to 1000 nM,631 nM,,
CC[C@H]1CN(c2cc(Cl)cc(-c3ccnc4c3C(O)(CC)C(=O)N4)n2)CCN1 (some centres unmarked) [Example 143],3.16 to 10 nM,3.98 nM,8,E (a ratio of between 5 and 10),31.6 to 100 nM,31.6 nM,,
C[C@@H]1CN(c2cc(-c3ccnc4c3C(C)(O)C(=O)N4)cc(C(F)(F)F)c2)CCN1 (some centres unmarked) [Example 77],31.6 to 100 nM,100 nM,12,D (a ratio of between 10 and 20),> 1000 nM,2510 nM,,
"C[C@@H]1CNCCN1c1cc(Cl)cc(-c2ccnc3c2[C@](C)(O)C(=O)N3)n1 (single isomer, unassigned) [Example 105]",0.316 to 1 nM,1 nM,7,E (a ratio of between 5 and 10),10 to 31.6 nM,20 nM,,
CC1(C)C(=O)Nc2ncc(Cl)c(-c3cc(F)cc(N4CCNCC4)c3)c21 [Example 79],31.6 to 100 nM,39.8 nM,2,F (a ratio of between 1 and 5),316 to 1000 nM,794 nM,,
O=c1[nH]c2nccc(-c3cccc(N4CCNCC4)n3)c2[nH]1 [Example 14],100 to 316 nM,100 nM,2,F (a ratio of between 1 and 5),316 to 1000 nM,631 nM,,
C[C@H]1CNCCN1c1cc(C(F)(F)F)cc(-c2ccnc3c2C(C)(C)C(=O)N3)n1 [Example 101],3.16 to 10 nM,6.31 nM,12,D (a ratio of between 10 and 20),31.6 to 100 nM,100 nM,,
O=c1[nH]c2nccc(-c3cccc(N4CCNCC4)c3)c2o1 [Example 6],> 1000 nM,1000 nM,2,F (a ratio of between 1 and 5),> 1000 nM,10000 nM,,
CC[C@H]1CN(c2cc(Cl)cc(-c3ccnc4c3C(C)(C)C(=O)N4)n2)CCN1 [Example 145],0.316 to 1 nM,0.794 nM,25,C (a ratio of between 20 and 30),10 to 31.6 nM,15.8 nM,,
CC[C@H]1CN(c2cccc(-c3ccnc4c3C(C)(C)C(=O)N4)c2)CCN1 [Example 51],31.6 to 100 nM,79.4 nM,3,F (a ratio of between 1 and 5),> 1000 nM,1260 nM,,
CC1(C)C(=O)Nc2nccc(-c3cc(C#N)cc(N4CCNCC4)c3)c21 [Example 53],100 to 316 nM,251 nM,3,F (a ratio of between 1 and 5),> 1000 nM,1580 nM,,
COc1cc(-c2ccnc3[nH]c(=O)[nH]c23)cc(N2CCNCC2)c1 [Example 9],> 1000 nM,2000 nM,1,G (a ratio of 0 to 1),> 1000 nM,1260 nM,,
O=c1[nH]c2nccc(-c3cccc(CN4CCNCC4)c3)c2[nH]1 [Example 20],> 1000 nM,3980 nM,,G (a ratio of 0 to 1),> 1000 nM,10000 nM,,
"CC[C@H]1CN(c2cc(Cl)cc(-c3ccnc4c3[C@@](C)(OC)C(=O)N4)n2)CCN1 (single isomer, unassigned) [Example 152]",3.16 to 10 nM,6.31 nM,11,D (a ratio of between 10 and 20),,,7.1,D (a measured pIC50 of between 7.0 and 7.5)
"CC1(C)CN(c2cc(Cl)cc(-c3ccnc4c3[C@](C)(O)C(=O)N4)n2)CCN1 (single isomer, unassigned) [Example 133]",1 to 3.16 nM,2.51 nM,10,D (a ratio of between 10 and 20),31.6 to 100 nM,50.1 nM,,
C[C@H]1CNCCN1c1cc(F)cc(-c2ccnc3c2C(C)(O)C(=O)N3)c1 (some centres unmarked) [Example 58],10 to 31.6 nM,12.6 nM,7,E (a ratio of between 5 and 10),316 to 1000 nM,316 nM,,

# Source: patent US20260035367A1 (Celgene Corporation, priority 2021, published 2026)
